This note sets out measurements from US20120029041A1, “2-ARYL IMIDAZOLINE DERIVATIVES” (MSD K.K., priority 2009, published 2012).

This test has as its target T1, human QRFP receptor (GPR103) (Homo sapiens, UniProt Q96P65).
T1 construct: expressed in transfected cells; host or cells: NFAT β-Lactamase CHO-K1 host cells (Aurora); membrane specimen
T1 sequence (Q96P65 1-431): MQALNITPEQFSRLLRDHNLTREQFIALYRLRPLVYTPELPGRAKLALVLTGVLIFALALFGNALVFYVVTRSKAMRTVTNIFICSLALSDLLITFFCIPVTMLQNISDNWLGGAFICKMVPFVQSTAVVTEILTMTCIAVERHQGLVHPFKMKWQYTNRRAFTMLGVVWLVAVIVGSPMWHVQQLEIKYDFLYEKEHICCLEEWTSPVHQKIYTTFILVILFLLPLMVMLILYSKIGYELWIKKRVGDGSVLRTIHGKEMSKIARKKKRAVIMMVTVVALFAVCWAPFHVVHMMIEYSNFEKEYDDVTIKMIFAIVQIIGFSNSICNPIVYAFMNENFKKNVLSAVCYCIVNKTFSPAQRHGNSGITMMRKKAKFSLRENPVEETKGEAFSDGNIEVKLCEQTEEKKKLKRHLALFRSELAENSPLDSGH
Put plainly: QRFP43 Binding Inhibition Test. The note with it: membrane specimen from GPR103 expressing CHO-K1 cells, [125I] QRFP43, 25° C., 1 hour; read-out: IC50 for the specific [125I] QRFP43 binding. An excerpt: The cDNA sequence [Accession No. NM_198179] that codes for human QRFP receptor (GPR103) was cloned into an expression vector pEF1V5-HisB (Invitrogen). The expression vector so prepared was transfected into NFAT [β-Lactamase CHO-K1 host cells (Aurora) to obtain QRFP receptor (GPR103) expressing cells, using the cationic lipid method [see Proceedings of the National Academy of Sciences of the United States of America, Vol. 84, p. 7413 (1987)].
The membrane specimen prepared from the QRFP receptor (GPR103) expressing cells was incubated at 25° C. for 1 hour with a test compound and 20,000 cpm [^125I] QRFP43 (PerkinElmer, Inc.) in an assay buffer (50 mM Tris-HCl, 1 mM EDTA, and 0.1% BSA, pH 7.4), followed by filtration using a glass filter GF/C. After washing with a 50 mM Tris-HCl (containing 2 mM EDTA, 10 mM MgCl2, and 0.04% Tween-20) buffer at pH 7.4, the radioactivity on the glass filter was determined using a gamma counter. Non-specific binding was measured in the presence of 1 μM peptide QRFP43, and 50% inhibition concentration (IC50 value) of the test compound for the specific [^125I] QRFP43 binding was determined [see Endocrinology, Vol. 131, p. 2090 (1992)].
`Clc1ccc(C2=NCCN2C(c2ccccc2)c2ccccc2)cc1` [Example 2, 2-(4-Chlorophenyl)-1-(diphenylmethyl)-4,5-dihydro-1H-imidazole]: the IC50 came out at 17 nM. With `Cc1ccc(C2=NCCN2C(c2ccccc2)c2ccccc2)cc1` [Example 5, 1-(Diphenylmethyl)-2-(4-methylphenyl)-4,5-dihydro-1H-imidazole] the figure was 37 nM; with `COc1ccc(C2=NCCN2C(c2ccccc2)c2ccccc2)cc1` [Example 6, 1-(Diphenylmethyl)-2-(4-methoxyphenyl)-4,5-dihydro-1H-imidazole], 11 nM.
